molecular target: human M4 receptor (Homo sapiens (Human), UniProt P08173); assay: Radioligand (tritiated N-methylscopolamine) binding assay, M4; conditions: Ki against the M4 receptor; membranes from CHO cells expressing human M4; tritiated N-methylscopolamine 1.5 nM; read-out: Ki
Protocol: Binding affinity (Ki) of compounds was measured by inhibition of radioligand binding to membranes from CHO cells expressing human M1, M2, M3, M4 and M5 receptors. Membranes were prepared by nitrogen cavitation and differential centrifugation as previously described (Hoare et al., Mol. Pharmacol. 2003 March; 63(3): 751-65). The radioligand employed was tritiated N-methylscopolamine, used at a concentration of 1.5 nM. A dose-response of twelve concentrations of compound was used, ranging from 10 μM to […]. The assay buffer was 50 mM HEPES, 100 mM NaCl, 5 mM MgCl2, 1 mM ethylenediaminetetraacetic acid, pH-adjusted to pH 7.4. Membranes, radioligand and compound were incubated together for 90 minutes at 37° C., in a total volume of 150 μl in a 96-well plate. Receptor-bound radioligand was then collected by harvesting the assay over glass fiber filters pretreated with polyethylenimine to trap the cell membranes, using rapid vacuum filtration. Harvesting and radioactivity counting was conducted as previously described (see, e.g., Hoare et al., Mol. Pharmacol. 2003 63(3):751-65); Erratum at Mol. Pharmacol. 2005 July; 68(1): 260).

Sequence of human M4 receptor (P08173 whole entry): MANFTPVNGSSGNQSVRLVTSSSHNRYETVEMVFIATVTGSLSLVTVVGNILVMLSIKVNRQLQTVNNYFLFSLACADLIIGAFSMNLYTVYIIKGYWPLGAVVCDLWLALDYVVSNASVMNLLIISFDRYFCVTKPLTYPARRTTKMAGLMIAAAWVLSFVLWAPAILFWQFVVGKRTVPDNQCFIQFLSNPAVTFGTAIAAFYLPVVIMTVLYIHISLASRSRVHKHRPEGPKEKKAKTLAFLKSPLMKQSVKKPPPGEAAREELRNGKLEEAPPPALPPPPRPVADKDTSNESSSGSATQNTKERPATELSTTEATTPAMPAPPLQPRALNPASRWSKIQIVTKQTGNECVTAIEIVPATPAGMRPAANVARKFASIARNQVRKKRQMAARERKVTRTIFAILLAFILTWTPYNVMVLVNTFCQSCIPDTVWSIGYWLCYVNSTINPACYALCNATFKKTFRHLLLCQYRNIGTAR

Row | Ki | Compound
1 | 10 to 100 nM | N#Cc1cc(N2CCC(O)(C(=O)NCCC3CCN(Cc4ccccc4)CC3)CC2)ccc1OC(F)(F)F [10-36, N-[2-(1-benzylpiperidin-4-yl)ethyl]-1-[3-cyano-4-(trifluoromethoxy)phenyl]-4-hydroxypiperidine-4-carboxamide]
2 | 100 to 1000 nM | CC(C)N(C)C(=O)c1cnc(N2C[C@@H](C)N(C(=O)NCCC3CCN(Cc4ccccc4)CC3)[C@@H](C)C2)nc1 [27-3]
3 | 100 to 1000 nM | Cc1cc(C(=O)NC(C)C)nc(N2CCN(C(=O)NCCC3CCN(Cc4ccccc4)CC3)[C@H](C)C2)n1 [27-13]
4 | 100 to 1000 nM | C[C@@H]1CN(c2cc(F)c(F)c(F)c2)CCN1C(=O)NCCC1CCN(Cc2c(F)cccc2F)CC1 [6-28, (2R)-N-(2-{1-[(2,6-difluorophenyl)methyl]piperidin-4-yl}ethyl)-2-methyl-4-(3,4,5-trifluorophenyl)piperazine-1-carboxamide]
5 | 10 to 100 nM | O=C(NCCC1CCN(Cc2ccccc2)CC1)N1CCN(c2ccc(Cl)cc2)CC1 [8-13, N-[2-(1-benzylpiperidin-4-yl)ethyl]-4-(4-chlorophenyl)piperazine-1-carboxamide]
6 | 10 to 100 nM | C[C@@H]1CN(c2cc(F)c(F)c(F)c2)CCN1C(=O)NCCC1CCN(Cc2cccc(F)c2F)CC1 [6-17, (2R)-N-(2-{1-[(2,3-difluorophenyl)methyl]piperidin-4-yl}ethyl)-2-methyl-4-(3,4,5-trifluorophenyl)piperazine-1-carboxamide]
7 | 100 to 1000 nM | Cc1nc(-c2ccc(Cl)cc2)sc1C(=O)NCCC1CCN(Cc2ccccc2)CC1 [9-4, N-[2-(1-benzylpiperidin-4-yl)ethyl]-2-(4-chlorophenyl)-4-methyl-1,3-thiazole-5-carboxamide]
8 | 10 to 100 nM | Cc1c(C(=O)NCCC2CCN(Cc3ccccc3)CC2)cnc2cc(-c3cccc(F)c3)nn12 [18-6]
9 | 100 to 1000 nM | O=C(NCCC1CCN(Cc2ccccc2)CC1)C1(O)CCN(c2cccc(OC(F)(F)F)c2)CC1 [10-62, N-[2-(1-benzylpiperidin-4-yl)ethyl]-4-hydroxy-1-[3-(trifluoromethoxy)phenyl]piperidine-4-carboxamide]
10 | 100 to 1000 nM | C[C@@H]1CN(c2ncc(C#N)cn2)C[C@H](C)N1C(=O)NCCC1CCN(Cc2ccc3c(c2)nnn3C)CC1 [6-66, (2R,6S)-4-(5-cyanopyrimidin-2-yl)-2,6-dimethyl-N-(2-{1-[(1-methyl-1H-1,2,3-benzotriazol-5-yl)methyl]piperidin-4-yl}ethyl)piperazine-1-carboxamide]
11 | 10 to 100 nM | CC(c1ccccc1)N1CCC(CCNC(=O)N2CCN(c3cc(F)c(F)c(F)c3)C[C@H]2C)CC1 (stereo partly drawn) [6-14, (2R)-2-methyl-N-{2-[1-(1-phenylethyl)piperidin-4-yl]ethyl}-4-(3,4,5-trifluorophenyl)piperazine-1-carboxamide]
12 | 100 to 1000 nM | Cc1cc(CN2CCC(CCNC(=O)N3[C@H](C)CN(c4cnc(C(F)(F)F)nc4)C[C@@H]3C)CC2)ccc1O [6-49, (2R,6S)-N-(2-{1-[(4-hydroxy-3-methylphenyl)methyl]piperidin-4-yl}ethyl)-2,6-dimethyl-4-[2-(trifluoromethyl)pyrimidin-5-yl]piperazine-1-carboxamide]
13 | 100 to 1000 nM | Cc1cncc(N2CCN(C(=O)NCCC3CCN(Cc4ccccc4)CC3)[C@H](C)C2)c1 [4-63, (2R)-N-[2-(1-benzylpiperidin-4-yl)ethyl]-2-methyl-4-(5-methylpyridin-3-yl)piperazine-1-carboxamide]
14 | 100 to 1000 nM | N#Cc1cc2ccccc2nc1-c1cc(C(=O)NCCC2CCN(Cc3ccccc3)CC2)ccc1Cl [9-60, N-[2-(1-benzylpiperidin-4-yl)ethyl]-4-chloro-3-(3-cyanoquinolin-2-yl)benzamide]
15 | 100 to 1000 nM | C[C@@H]1CN(c2ncc(C(=O)O)cn2)CCN1C(=O)NCCC1CCN(Cc2ccccc2)CC1 [5-2, 2-[(3R)-4-{[2-(1-benzylpiperidin-4-yl)ethyl]carbamoyl}-3-methylpiperazin-1-yl]pyrimidine-5-carboxylic acid]
16 | 100 to 1000 nM | O=C(NCCC1CCN(Cc2ccccc2)CC1)c1ccc(SC(F)(F)F)cc1 [9-56, N-[2-(1-benzylpiperidin-4-yl)ethyl]-4-[(trifluoromethyl)sulfanyl]benzamide]
17 | 100 to 1000 nM | Cc1cc(C)nc(N2CCC(C(=O)NCCC3CCN(Cc4ccccc4)CC3)CC2)n1 [10-74, N-[2-(1-benzylpiperidin-4-yl)ethyl]-1-(4,6-dimethylpyrimidin-2-yl)piperidine-4-carboxamide]
18 | 10 to 100 nM | Cc1c(C(=O)NCCC2CCN(Cc3ccccc3)CC2)cnc2cc(-c3cccc(C#N)c3)nn12 [18-8]
19 | 10 to 100 nM | C[C@@H]1CN(c2cc(F)ccc2F)CCN1C(=O)NCCC1CCN(Cc2ccccc2)CC1 [4-45, (2R)-N-[2-(1-benzylpiperidin-4-yl)ethyl]-4-(2,5-difluorophenyl)-2-methylpiperazine-1-carboxamide]

Row | Ki | Compound
20 | 100 to 1000 nM | Cc1c(C(=O)NCCC2CCN(Cc3ccccc3)CC2)cnc2cc(-c3ccc(F)nc3)nn12 [18-15]
21 | 100 to 1000 nM | O=C(NCCC1CCN(Cc2ccccc2)CC1)NC1CCN(c2ccc(F)cc2)CC1 [8-39, 1-[2-(1-benzylpiperidin-4-yl)ethyl]-3-[1-(4-fluorophenyl)piperidin-4-yl]urea]
22 | 10 to 100 nM | Cc1c(C(=O)NCCC2CCN(Cc3cccc4c3OCCO4)CC2)cnc2cc(-c3ccccc3)nn12 [19-2]
23 | 10 to 100 nM | CO[C@H](CNC(=O)N1CCN(c2ccc(F)c(C#N)c2)C[C@H]1C)C1CCN(Cc2ccccc2)CC1 [3-6, (2R)-N-[(2S)-2-(1-benzylpiperidin-4-yl)-2-methoxyethyl]-4-(3-cyano-4-fluorophenyl)-2-methylpiperazine-1-carboxamide]
24 | 10 to 100 nM | COc1nc(N2CCN(C(=O)NCCC3CCN(Cc4ccccc4)CC3)[C@H](C)C2)ncc1C#N [4-26, (2R)-N-[2-(1-benzylpiperidin-4-yl)ethyl]-4-(5-cyano-4-methoxypyrimidin-2-yl)-2-methylpiperazine-1-carboxamide]
25 | 100 to 1000 nM | CN(CCNC(=O)C1CCN(c2ccc(OC(F)(F)F)c(F)c2)CC1)C1CN(Cc2ccccc2)CC1CO (stereo not shown) [9-35, N-(2-{[1-benzyl-4-(hydroxymethyl)pyrrolidin-3-yl](methyl)amino}ethyl)-1-[3-fluoro-4-(trifluoromethoxy)phenyl]piperidine-4-carboxamide]
26 | 100 to 1000 nM | N#Cc1ccc(N2CCN(C(=O)NCCC3CCN(Cc4ccccc4)CC3)CC2)nc1 [8-45, N-[2-(1-benzylpiperidin-4-yl)ethyl]-4-(5-cyanopyridin-2-yl)piperazine-1-carboxamide]
27 | 100 to 1000 nM | O=C(NCC1CCN(Cc2ccccc2)CC1)C1CCN(c2ncc(C(F)(F)F)cc2Cl)CC1 [9-65, N-[(1-benzylpiperidin-4-yl)methyl]-1-[3-chloro-5-(trifluoromethyl)pyridin-2-yl]piperidine-4-carboxamide]
28 | 100 to 1000 nM | O=C(NCC[C@@H]1CCN(Cc2ccccc2)C1)C1CCN(c2ccc(OC(F)(F)F)cc2)CC1 [9-66, N-{2-[(3R)-1-benzylpyrrolidin-3-yl]ethyl}-1-[4-(trifluoromethoxy)phenyl]piperidine-4-carboxamide]
29 | 100 to 1000 nM | O=C(NCCC1CCN(Cc2ccccc2)CC1)C1CCN(c2ncc(Br)cn2)CC1 [9-37, N-[2-(1-benzylpiperidin-4-yl)ethyl]-1-(5-bromopyrimidin-2-yl)piperidine-4-carboxamide]
30 | 100 to 1000 nM | CCC(C)NC(=O)c1cnc(N2C[C@@H](C)N(C(=O)NCCC3CCN(Cc4ccccc4)CC3)[C@@H](C)C2)nc1 (stereo partly shown) [27-8]
31 | 10 to 100 nM | C[C@@H]1CN(c2ccnc(C(F)(F)F)c2)CCN1C(=O)NCCC1CCN(Cc2ccccc2)CC1 [22-29]
32 | 100 to 1000 nM | C[C@@H]1CN(c2ncc(Cl)c(Cl)n2)CCN1C(=O)NCCC1CCN(Cc2ccccc2)CC1 [5-3, (2R)-N-[2-(1-benzylpiperidin-4-yl)ethyl]-4-(4,5-dichloropyrimidin-2-yl)-2-methylpiperazine-1-carboxamide]
33 | 100 to 1000 nM | O=C(NCCC1CCN(Cc2ccccc2)CC1)Nc1ccc(Oc2ccccc2)cc1 [8-41, 3-[2-(1-benzylpiperidin-4-yl)ethyl]-1-(4-phenoxyphenyl)urea]
34 | 10 to 100 nM | N#Cc1cc(OC(F)(F)F)cc(N2CCC(O)(C(=O)NCCC3CCN(Cc4ccccc4)CC3)CC2)c1 [10-46, N-[2-(1-benzylpiperidin-4-yl)ethyl]-1-[3-cyano-5-(trifluoromethoxy)phenyl]-4-hydroxypiperidine-4-carboxamide]
35 | 10 to 100 nM | COc1cccc(CN2CCC(CCNC(=O)N3[C@H](C)CN(c4ncc(C#N)cn4)C[C@@H]3C)CC2)c1 [6-59, (2R,6S)-4-(5-cyanopyrimidin-2-yl)-N-(2-{1-[(3-methoxyphenyl)-methyl]piperidin-4-yl}ethyl)-2,6-dimethylpiperazine-1-carboxamide]
36 | 10 to 100 nM | C[C@@H]1CN(c2cnc(C(F)(F)F)nc2)C[C@H](C)N1C(=O)NCCC1CCN(Cc2cccc(F)c2)CC1 [6-51, (2R,6S)-N-(2-{1-[(3-fluorophenyl)methyl]piperidin-4-yl}ethyl)-2,6-dimethyl-4-[2-(trifluoromethyl)pyrimidin-5-yl]piperazine-1-carboxamide]
37 | 100 to 1000 nM | N#Cc1ccc(N2CCC(C(=O)NCCC3CCN(Cc4cccc5c4OCCO5)CC3)CC2)nc1 [11-16, 1-(5-cyanopyridin-2-yl)-N-{2-[1-(2,3-dihydro-1,4-benzodioxin-5-ylmethyl)piperidin-4-yl]ethyl}piperidine-4-carboxamide]
